According to US10245249B2, “Pharmaceutical compositions comprising nitroxyl donors” (Cardioxyl Pharmaceuticals, Inc., priority 2013, dated 2019):

Assays:
dogs = assay: 14-day continuous infusion tolerance studies of CXL-1020 in dogs; assay type: in vivo
Procedure: During in vivo trials of the nitroxyl donor CXL-1020 (N-hydroxy-2-methanesulfonylbenzene-1-sulfonamide), a 14-day study was conducted to evaluate tolerance in dogs treated with continuous infusions of CXL-1020 at dose rates of up to 90 μg/kg/min.
To further investigate this undesirable side-effect, a follow-up 14-day study in dogs was initiated.

[1] = tested on: patients with systolic heart failure; conditions: cited from earlier work
healthy volunteers = assay: 24-hour continuous infusion dose escalation safety study in healthy volunteers; assay type: in vivo, human
Procedure: To determine whether a local phlebitis would occur in humans upon longer duration dosing, a longer duration study was conducted in healthy volunteers. The longer duration study included a dose escalation study in which cohorts of 10 volunteers were to be sequentially administered a 24-hour continuous infusion of CXL-1020 at the dose rates of 10, 20, and 30 μg/kg/min with a safety assessment between each cohort. Each cohort consisted of 2 placebo and 8 active treatments with a sentinel pair of 1 active and 1 placebo followed by the main group of 1 placebo and 7 active treatments. The infusion was via a percutaneous catheter inserted into a forearm vein. The catheter was switched to the contralateral arm after 12 hours of infusion.

[2] = Stability of dosing solutions of compound of formula (2) stored at 25° C. (Example 11); assay type: physicochemical
Procedure: A series of dosing solutions of the compound of formula (2) for IV administration was assessed. The selected concentrate of compound of formula (2), prepared at 30 mg/mL in a vehicle of 30% CAPTISOL® at pH 4.0, was evaluated at low, mid, and high concentrations (0.1, 1 and 5 mg/mL, respectively) upon dilution into various dosing solutions. For dilution of the compound of formula (2) to 0.1 and 1 mg/mL, three dosing solutions were evaluated; 1) D5W, 2) D5W with 5 mM K-phosphate (pH=6), and 3) D5W with 20 mM K-phosphate (pH=6). To maintain iso-osmolality for dilutions of the compound of formula (2) to 5 mg/mL, the concentration of dextrose in the dosing solutions was reduced to 2.5% (w/v). Thus, the dosing solutions evaluated were; (1) D2.5W, (2) D2.5W with 5 mM K-phosphate (pH=6), and (3) D2.5W with 20 mM K-phosphate (pH=6).
The potential dosing solutions were assessed for visual appearance, pH, osmolality, and concentration and purity by HPLC (XBridge Phenyl Column (Waters); UV absorbance detector at 272 nm; mobile phase a step gradient of aqueous acetonitrile containing 0.1% (v/v) formic acid) after approximately 0, 16, 24, and 48 hours of storage at 25° C. […] In addition, the known degradant, the compound of formula (101), formed by release of the active HNO group, was observed after 16 hours at 25° C. in small quantities by HPLC in the dosing solutions containing phosphate buffer. […]

Compound | dose rate tolerated (dogs; 14-day continuous infusion, dogs) [µg/kg/min] | side effects in follow-up 14-day study (dogs; dog, in vivo) | hemodynamic effects in patients with systolic heart failure ([1]; intravenous aqueous solution at pH=4) | side effects at threshold doses needed to produce hemodynamic effects ([1]; intravenous) | tolerability (healthy volunteers; 10 μg/kg/min for 24-hours) | adverse findings (healthy volunteers; 20 μg/kg/min for 24-hours) | osmolality ([2]; 1 mg/mL in D5W with 20 mM phosphate) | visual appearance ([2]; 5 mg/mL in D2.5W with 5 mM phosphate (pH 6.0), after 48 hours at 25° C.)
CS(=O)(=O)c1ccccc1S(=O)(=O)NO [CXL-1020, N-hydroxy-2-methanesulfonylbenzene-1-sulfonamide, reference compound] | 60 | significant swelling and inflammation in the dogs' hind limbs | reduced both left and right heart filling pressures and systemic vascular resistance, while increasing cardiac and stroke volume index | unacceptable levels of inflammatory irritation at and distal to the intravenous insertion site | well tolerated | mild findings (either clinical signs and/or changes in clinical pathology) in all 8 subjects consistent with infusion site phlebitis |  | 
CS(=O)(=O)c1cccc(S(=O)(=O)NO)c1 [Compound 2, N-Hydroxy-3-methanesulfonylbenzene-1-sulfonamide] |  |  |  |  |  |  | approximately 350 mOsm/kg | clear, light yellow
